The source made the active and inactive calls. Where only a bound is given, the exact number is not on record here.

The target of experiment [1] is G-protein coupled receptor 55 (Homo sapiens, UniProt Q9Y2T6). As to the kind of experiment: GPR55 agonists via beta-arrestin recruitment, primary screen, imaging, U2OS cells, beta-arrestin-GFP redistribution (AID 1961). It is filed as functional. Background: Recruitment of arrestin is a read-out of receptor activation apart from second messengers.
In experiment [2] the target is Neurotensin receptor type 1 (Homo sapiens, UniProt P30989). It is filed as functional.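 Note: Image-based confirmatory dose-response assay measuring agonist activity at NTR1; NTR1-expressing U2OS osteosarcoma cells imaged for beta-arrestin GFP spot formation; agonist potency where compounds increase beta-arrestin recruitment.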
The nature of experiment [3]: cytotoxicity toward NIH3T3 fibroblasts, dose response, counter-screen, cell-based, ATP luminescence, mouse fibroblasts (AID 2010).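 Note: cells exposed to compound for about 90 hours before reading.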 It is filed as functional. In general terms: The purpose of a counterscreen is to sort out artefacts and off-target activity.
Experiment [4] can be described thus: inhibitors of intracellular T. cruzi replication, confirmation, NIH3T3 host cells, beta-gal luminescence (AID 2044).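 Note: intracellular parasites grown in NIH/3T3 mouse fibroblasts as host cells; luminescent beta-galactosidase reporter signal from transgenic T. cruzi replicating inside host cells; inhibitors lower the luminescence signal.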 It is filed as functional, cell-based.
A short description of experiment [5]: off-target signal loss in HeLa-CEM21 co-culture – HeLa F-luc CTL cells, cherry-picked, counter-screen for HIV-1 Env fusion inhibitor project, dose response (AID 652040).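 Note: potency for signal decrease marking cytotoxic or nonspecific inhibition.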 Type of experiment: functional, cell-based.
The test system of experiment [6] is HEK293. As to the kind of experiment: optical interference in Abeta FP readout, dose response, artefact control for IDE activator project, biochemical, fluorescence polarization (AID 588442). Type of experiment: functional, cell-based. As to conditions: Homo sapiens.
The test system of experiment [7] is INS1. As to the kind of experiment: beta cell apoptosis inhibitors, cytokine rescue, dose response, luminescence, retest (AID 449756).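 Note: cell death triggered by IL-1 beta plus TNF-alpha plus IFN-gamma mixture; protective hits raise ATP signal compared with cytokine alone wells.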 It is filed as functional, cell-based. As to conditions: Rattus norvegicus.
The subject of experiment [8] is HEK293. As to the kind of experiment: HEK cell cytotoxicity by LDH release, dose response, cytotoxicity control for IDE activator project, fluorescence, HEK cells (AID 588440).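 Note: cytotoxicity by LDH release measuring loss of membrane integrity.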 Type of experiment: functional, cell-based. Conditions: Homo sapiens.
Experiment [9] has as its target T1, Insulin-degrading enzyme (Homo sapiens, UniProt P14735).
T1 sequence (P14735 whole entry): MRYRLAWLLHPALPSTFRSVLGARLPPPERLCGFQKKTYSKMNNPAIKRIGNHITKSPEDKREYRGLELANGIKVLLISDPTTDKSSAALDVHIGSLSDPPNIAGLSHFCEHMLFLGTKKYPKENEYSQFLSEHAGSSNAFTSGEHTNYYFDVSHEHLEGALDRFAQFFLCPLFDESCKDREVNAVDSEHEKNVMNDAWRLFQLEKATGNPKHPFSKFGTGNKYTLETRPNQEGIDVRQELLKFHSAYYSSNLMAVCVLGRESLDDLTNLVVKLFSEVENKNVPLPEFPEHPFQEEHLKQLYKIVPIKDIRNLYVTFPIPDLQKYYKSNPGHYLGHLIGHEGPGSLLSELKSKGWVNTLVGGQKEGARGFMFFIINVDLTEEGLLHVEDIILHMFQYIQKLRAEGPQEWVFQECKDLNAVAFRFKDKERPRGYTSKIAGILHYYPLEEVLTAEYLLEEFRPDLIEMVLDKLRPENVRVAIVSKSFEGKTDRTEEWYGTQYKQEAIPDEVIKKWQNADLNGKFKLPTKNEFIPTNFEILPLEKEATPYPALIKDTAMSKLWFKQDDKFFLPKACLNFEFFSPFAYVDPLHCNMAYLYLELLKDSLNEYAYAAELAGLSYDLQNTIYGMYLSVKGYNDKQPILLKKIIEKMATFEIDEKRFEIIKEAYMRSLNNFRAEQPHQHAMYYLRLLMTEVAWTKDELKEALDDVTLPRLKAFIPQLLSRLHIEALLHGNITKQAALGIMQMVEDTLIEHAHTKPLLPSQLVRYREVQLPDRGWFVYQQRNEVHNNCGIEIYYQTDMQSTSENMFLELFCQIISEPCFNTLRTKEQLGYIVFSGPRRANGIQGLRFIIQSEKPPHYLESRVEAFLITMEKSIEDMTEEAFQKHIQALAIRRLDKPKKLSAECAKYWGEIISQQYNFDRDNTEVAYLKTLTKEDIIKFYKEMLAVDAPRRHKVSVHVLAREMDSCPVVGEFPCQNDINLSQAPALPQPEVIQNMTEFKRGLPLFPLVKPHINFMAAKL
As to the kind of experiment: activators of endogenous IDE in HEK cells, dose response, cell-based, fluorescence polarization (AID 588439). It is filed as functional. A general note: In fluorescence polarisation assays a small probe gives low polarisation when free and higher when bound to something large.

Experiment [10] can be described thus: CEM21 lymphoblast cell cytotoxicity, dose response, cytotoxicity control for viral fusion inhibitor project, CellTiter-Glo luminescence, cherry-picked (AID 652042).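 Note: potency for signal decrease meaning cytotoxicity.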 Type of experiment: functional, cell-based.
Experiment [11] concerns the target T1, Insulin-degrading enzyme. As to the kind of experiment: activators of recombinant IDE enzyme, dose response, counter-screen for IDE activator project, biochemical, fluorescence polarization (AID 588681).
The nature of experiment [12]: ZM109 Env clade C HIV-1 fusion inhibitors, dose response, HeLa effector, CEM target cells, luciferase, cherry-pick (AID 652058). It is filed as functional, cell-based.
The nature of experiment [13]: inhibitors of clade B AD8 Env fusion, dose response, cell-based, cherry-pick (AID 652062).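 Note: luciferase signal from cell-cell fusion driven by HIV-1 clade B AD8 Env; potency is for inhibitors of fusion seen as a drop in luminescence.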 It is filed as functional.
Experiment [14] can be described thus: inhibitors of HIV Env-driven cell fusion, dose response, cherry-pick (AID 652057). It is filed as functional, cell-based.
The target in experiment [15] is Protein phosphatase methylesterase 1 (Homo sapiens, UniProt Q9Y570). As to the kind of experiment: PME-1 inhibitor potency by in-gel ABPP, dose response, selectivity assay for PME-1 inhibitor project, cell lysate, mouse brain cytosol, FP-rhodamine, panel member PME-1 Assay Panel member description: Inhibition of endogenously expressed PME-1 (AID 2366).
For experiment [16], the target named is T2, Intestinal-type alkaline phosphatase (Homo sapiens, UniProt P09923). As to the kind of experiment: Dose Response confirmation of uHTS hits from a small molecule inhibitors of human intestinal alkaline phosphatase via a luminescent assay. [Related pubchem assays (depositor defined):AID2544, AID2574]. It is filed as functional.
For experiment [17], the target named is T2, Intestinal-type alkaline phosphatase. As to the kind of experiment: human intestinal alkaline phosphatase activators, dose response, biochemical, luminescence, uHTS hits (AID 463120). It is filed as functional.
Experiment [18] addresses Cytochrome P450 2D6 (Homo sapiens, UniProt P10635).
Experiment [19] addresses T3, Short transient receptor potential channel 4 (Mus musculus, UniProt Q9QUQ5).
T3 sequence (Q9QUQ5 whole entry): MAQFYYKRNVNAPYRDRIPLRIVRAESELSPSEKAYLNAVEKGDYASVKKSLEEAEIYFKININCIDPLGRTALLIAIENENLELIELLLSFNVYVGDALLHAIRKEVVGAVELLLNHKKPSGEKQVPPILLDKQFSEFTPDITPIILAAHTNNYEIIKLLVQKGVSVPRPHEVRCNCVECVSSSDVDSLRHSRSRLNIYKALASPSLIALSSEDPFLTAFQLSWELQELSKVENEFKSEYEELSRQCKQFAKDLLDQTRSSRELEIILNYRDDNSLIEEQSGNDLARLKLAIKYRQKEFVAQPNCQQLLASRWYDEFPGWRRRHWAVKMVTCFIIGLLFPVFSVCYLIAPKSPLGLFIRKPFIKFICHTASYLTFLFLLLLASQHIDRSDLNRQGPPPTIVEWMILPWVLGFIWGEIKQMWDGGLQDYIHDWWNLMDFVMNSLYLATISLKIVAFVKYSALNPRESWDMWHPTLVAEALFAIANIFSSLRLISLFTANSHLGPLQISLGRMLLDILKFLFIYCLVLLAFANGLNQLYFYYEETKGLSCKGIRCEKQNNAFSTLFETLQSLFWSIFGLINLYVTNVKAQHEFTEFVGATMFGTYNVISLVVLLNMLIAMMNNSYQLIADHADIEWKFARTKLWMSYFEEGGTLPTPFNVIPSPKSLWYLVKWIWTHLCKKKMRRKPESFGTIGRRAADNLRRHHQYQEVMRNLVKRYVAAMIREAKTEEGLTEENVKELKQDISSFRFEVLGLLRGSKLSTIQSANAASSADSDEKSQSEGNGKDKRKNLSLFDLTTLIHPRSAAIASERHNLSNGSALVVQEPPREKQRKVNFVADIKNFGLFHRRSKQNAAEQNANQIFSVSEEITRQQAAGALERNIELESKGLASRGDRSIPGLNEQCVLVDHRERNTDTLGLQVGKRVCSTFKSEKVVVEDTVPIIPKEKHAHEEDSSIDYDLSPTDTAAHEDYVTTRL
As to the kind of experiment: mouse TRPC4 channel activators, dose response, cell-based, HEK293 TRPC4/mu-opioid, Fluo-4 calcium (AID 434937). Type of experiment: functional.

In experiment [20] the target is Cytochrome P450 2C19 (Homo sapiens, UniProt P33261). As to the kind of experiment: Cytochrome panel assay with activity outcomes. Panel member name: p450-cyp2c19 Compounds with AC50 equal or less than 10 uM are considered active. It is filed as functional. Conditions: read-out: AC50.
Experiment [21] concerns the target T3, Short transient receptor potential channel 4. As to the kind of experiment: TRPC4 positive allosteric modulators, dose response, cell-based, HEK293 TRPC4/mu-opioid, Fluo-4 calcium, EC20 DAMGO (AID 434941). It is filed as functional.

T2 sequence (P09923 whole entry): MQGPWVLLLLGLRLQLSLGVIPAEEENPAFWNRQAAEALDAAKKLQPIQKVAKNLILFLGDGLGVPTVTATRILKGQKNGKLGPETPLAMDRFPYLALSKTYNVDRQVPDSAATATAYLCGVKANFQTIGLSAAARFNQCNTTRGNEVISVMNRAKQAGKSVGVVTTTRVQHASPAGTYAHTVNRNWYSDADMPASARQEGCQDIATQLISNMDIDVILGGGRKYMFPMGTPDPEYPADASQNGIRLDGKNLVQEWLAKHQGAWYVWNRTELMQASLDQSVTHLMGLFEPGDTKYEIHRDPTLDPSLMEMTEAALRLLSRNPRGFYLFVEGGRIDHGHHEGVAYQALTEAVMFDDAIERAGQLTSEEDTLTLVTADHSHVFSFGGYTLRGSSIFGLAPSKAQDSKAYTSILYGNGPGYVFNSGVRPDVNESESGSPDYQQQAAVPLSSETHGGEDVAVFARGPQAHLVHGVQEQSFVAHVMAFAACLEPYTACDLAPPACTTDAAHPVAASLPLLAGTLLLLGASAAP
Chain of Protein phosphatase methylesterase 1 (Q9Y570 whole entry): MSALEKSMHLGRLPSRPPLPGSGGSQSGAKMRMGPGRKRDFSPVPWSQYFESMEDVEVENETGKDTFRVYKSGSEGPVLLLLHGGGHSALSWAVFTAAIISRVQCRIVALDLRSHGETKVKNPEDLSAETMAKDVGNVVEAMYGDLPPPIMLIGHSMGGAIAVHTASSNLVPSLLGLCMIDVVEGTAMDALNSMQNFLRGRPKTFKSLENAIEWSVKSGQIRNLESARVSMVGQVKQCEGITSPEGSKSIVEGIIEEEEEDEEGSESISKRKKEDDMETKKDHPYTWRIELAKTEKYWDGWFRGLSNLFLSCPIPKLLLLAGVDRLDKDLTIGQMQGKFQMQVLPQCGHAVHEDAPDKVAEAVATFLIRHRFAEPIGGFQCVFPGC
Chain of G-protein coupled receptor 55 (Q9Y2T6 whole entry): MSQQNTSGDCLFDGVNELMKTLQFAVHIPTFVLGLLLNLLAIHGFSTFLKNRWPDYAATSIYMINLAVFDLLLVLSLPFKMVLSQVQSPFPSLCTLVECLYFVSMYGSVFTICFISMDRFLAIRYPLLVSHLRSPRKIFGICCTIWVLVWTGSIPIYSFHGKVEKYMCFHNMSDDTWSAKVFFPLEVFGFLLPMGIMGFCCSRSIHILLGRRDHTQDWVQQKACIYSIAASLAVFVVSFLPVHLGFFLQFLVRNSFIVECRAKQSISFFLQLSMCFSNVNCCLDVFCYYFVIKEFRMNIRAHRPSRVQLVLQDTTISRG
Chain of Cytochrome P450 2D6 (P10635 whole entry): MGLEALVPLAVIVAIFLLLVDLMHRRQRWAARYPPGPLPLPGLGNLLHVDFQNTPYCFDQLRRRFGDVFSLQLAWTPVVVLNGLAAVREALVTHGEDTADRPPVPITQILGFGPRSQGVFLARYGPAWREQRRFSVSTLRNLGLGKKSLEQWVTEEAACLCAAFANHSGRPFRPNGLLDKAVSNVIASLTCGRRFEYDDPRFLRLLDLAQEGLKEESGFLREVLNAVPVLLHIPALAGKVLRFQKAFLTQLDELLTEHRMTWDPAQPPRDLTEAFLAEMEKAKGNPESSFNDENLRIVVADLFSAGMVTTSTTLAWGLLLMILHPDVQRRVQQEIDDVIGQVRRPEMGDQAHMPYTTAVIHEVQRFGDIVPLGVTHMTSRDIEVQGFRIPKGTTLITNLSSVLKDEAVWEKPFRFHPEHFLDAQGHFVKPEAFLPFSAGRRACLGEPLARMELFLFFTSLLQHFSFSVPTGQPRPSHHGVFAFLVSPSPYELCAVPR
Chain of Cytochrome P450 2C19 (P33261 whole entry): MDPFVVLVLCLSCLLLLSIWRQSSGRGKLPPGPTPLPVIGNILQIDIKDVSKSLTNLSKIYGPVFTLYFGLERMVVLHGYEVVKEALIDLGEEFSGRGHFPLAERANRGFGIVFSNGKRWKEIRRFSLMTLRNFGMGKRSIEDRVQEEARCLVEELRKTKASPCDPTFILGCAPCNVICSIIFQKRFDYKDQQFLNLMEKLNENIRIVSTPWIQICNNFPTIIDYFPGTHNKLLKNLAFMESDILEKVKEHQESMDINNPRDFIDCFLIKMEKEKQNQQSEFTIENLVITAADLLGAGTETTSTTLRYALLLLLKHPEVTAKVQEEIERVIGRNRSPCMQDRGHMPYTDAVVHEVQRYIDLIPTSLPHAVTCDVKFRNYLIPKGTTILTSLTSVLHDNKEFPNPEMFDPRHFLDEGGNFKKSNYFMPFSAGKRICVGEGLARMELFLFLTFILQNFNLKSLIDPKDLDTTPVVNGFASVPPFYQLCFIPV
Chain of Neurotensin receptor type 1 (P30989 whole entry): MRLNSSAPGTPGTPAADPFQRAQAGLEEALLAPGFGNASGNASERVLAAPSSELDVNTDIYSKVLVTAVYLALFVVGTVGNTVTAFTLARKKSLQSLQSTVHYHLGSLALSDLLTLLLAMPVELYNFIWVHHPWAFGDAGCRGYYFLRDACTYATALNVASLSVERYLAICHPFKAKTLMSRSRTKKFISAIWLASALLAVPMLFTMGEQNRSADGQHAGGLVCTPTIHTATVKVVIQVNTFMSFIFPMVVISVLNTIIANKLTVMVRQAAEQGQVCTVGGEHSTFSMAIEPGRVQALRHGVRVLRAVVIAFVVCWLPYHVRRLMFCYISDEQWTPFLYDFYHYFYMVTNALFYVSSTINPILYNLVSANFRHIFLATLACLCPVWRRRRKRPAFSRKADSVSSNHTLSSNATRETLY

On to `CC1CCC(C(C)C)C(OC(=O)Cn2c(COc3ccccc3)[n+](C)c3ccccc32)C1` (stereo unspecified), for which the EC50 in [1] was > 32 µM (inactive); in experiment [2], 14 µM (active); in experiment [3], > 60 µM (not active); in [4] it was 0.588 µM (active); in [6], > 54.7 µM (inactive); in [9], > 54.7 µM (inactive). The EC50 in experiment [11] was > 54.7 µM (inactive). For the same compound, the AC50 in experiment [5] is 6.69 µM (active); in [7] it was 6.26 µM (active); in experiment [10], 6.94 µM (active); in experiment [12], 6.35 µM (active); in [13], 8.6 µM (active); in [14] it was 3.26 µM (active). The IC50 in [8] is 17.4 µM (inactive).
Consider `N#CC(C#N)=Cc1cccn1S(=O)(=O)c1ccc(F)cc1F`, for which, in experiment [15], the IC50 was 20 µM (inactive).
As for `CCn1cc(CN2CCN(C)C(CCO)C2)c2ccccc21` (stereo unspecified), in experiment [16], the IC50 is > 100 µM (inactive). In experiment [17], the EC50 is > 100 µM (inactive).
`Cc1cc(OCCNCCO)cc(C)c1Cl`: the AC50 in experiment [18] is 25.1 µM (inconclusive); in experiment [20], 7.08 µM (inconclusive). For the same compound, the EC50 in [19] was 0.841 µM (active); in experiment [21] it was 0.09 µM (active).

What is called EC50 is the concentration that produces a half-maximal response. A word on the AC50: it is the midpoint of the concentration-response curve, whichever way the signal moves. The IC50 is the concentration at which inhibition is half-maximal.
